# According to paper PMC8617031, “Development of a BCL-xL and BCL-2 dual degrader with improved anti-leukemic activity,” (Nature Communications, 2021):
# Biological target: T1, BCL-xL (Homo sapiens, UniProt Q07817)
# T1 construct: endogenous in cells
# Test: BCL-xL degradation by western blot in human platelets
# Format: cell-based
# Conditions: Supplementary Fig. 12a
# Method: Cells were collected, washed once with ice-cold phosphate-buffered saline, pH 7.2 (PBS, cat. no. 20012027; Thermo Fisher Scientific) and lysed in RIPA lysis buffer (Cat. No. BP-115DG, Boston Bio Products, Ashland, MA, USA) supplemented with protease and phosphatase inhibitor cocktails (Cat. No. PPC1010, Sigma-Aldrich, St. Louis, MO, USA) through sonication. The samples were centrifuged at 14,000 r.p.m. for 5 min and the supernatants were transferred into a new tube. The protein concentration in the supernatants was determined using the Pierce BCA protein Assay kit (cat. no. 23225, Thermo Fisher Scientific). The protein concentration was normalized, and the samples were reduced in 4× Laemmli’s SDS-sample buffer (cat. no. BP-110R, Boston Bio Products) and denatured at 95 °C for 5 min. […] Following sufficient washing with TBST, the membranes were exposed with chemiluminescent HRP substrate (cat. no. WBKLS0500, MilliporeSigma), and the signal was detected using the ChemiDoc MP Imaging System (Bio-Rad) and quantified using the ImageJ (v1.53a) software from NIH. […]
# T1 sequence (Q07817 whole entry): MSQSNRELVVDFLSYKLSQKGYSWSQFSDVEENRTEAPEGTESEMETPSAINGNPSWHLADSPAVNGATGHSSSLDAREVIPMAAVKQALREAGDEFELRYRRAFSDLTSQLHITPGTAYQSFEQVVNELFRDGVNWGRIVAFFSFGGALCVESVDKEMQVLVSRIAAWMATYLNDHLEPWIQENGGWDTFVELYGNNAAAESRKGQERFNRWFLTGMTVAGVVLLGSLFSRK
smiles,measurement,value
Cc1ncsc1-c1ccc([C@H](C)NC(=O)[C@@H]2C[C@@H](O)CN2C(=O)[C@@H](NC(=O)CCCCCCC(=O)N2CCN(C[C@]3(C)CCC(c4ccc(Cl)cc4)=C(CN4CCN(c5ccc(C(=O)NS(=O)(=O)c6ccc(N[C@H](CCN7CCOCC7)CSc7ccccc7)c(S(=O)(=O)C(F)(F)F)c6)cc5)CC4)C3)CC2)C(C)(C)C)cc1 [753b],BCL-xL degradation in human platelets (in words),failed to induce BCL-xL degradation in human platelets
